The record followed here is patent US20140023611A1 (priority 2010, published 2014).

The target in one data set is T1, rat NaP2b (SLC34A2) (Rattus norvegicus, UniProt Q9JJ09).
T1 construct: host or cells: HEK293
T1 sequence (Q9JJ09 1-695): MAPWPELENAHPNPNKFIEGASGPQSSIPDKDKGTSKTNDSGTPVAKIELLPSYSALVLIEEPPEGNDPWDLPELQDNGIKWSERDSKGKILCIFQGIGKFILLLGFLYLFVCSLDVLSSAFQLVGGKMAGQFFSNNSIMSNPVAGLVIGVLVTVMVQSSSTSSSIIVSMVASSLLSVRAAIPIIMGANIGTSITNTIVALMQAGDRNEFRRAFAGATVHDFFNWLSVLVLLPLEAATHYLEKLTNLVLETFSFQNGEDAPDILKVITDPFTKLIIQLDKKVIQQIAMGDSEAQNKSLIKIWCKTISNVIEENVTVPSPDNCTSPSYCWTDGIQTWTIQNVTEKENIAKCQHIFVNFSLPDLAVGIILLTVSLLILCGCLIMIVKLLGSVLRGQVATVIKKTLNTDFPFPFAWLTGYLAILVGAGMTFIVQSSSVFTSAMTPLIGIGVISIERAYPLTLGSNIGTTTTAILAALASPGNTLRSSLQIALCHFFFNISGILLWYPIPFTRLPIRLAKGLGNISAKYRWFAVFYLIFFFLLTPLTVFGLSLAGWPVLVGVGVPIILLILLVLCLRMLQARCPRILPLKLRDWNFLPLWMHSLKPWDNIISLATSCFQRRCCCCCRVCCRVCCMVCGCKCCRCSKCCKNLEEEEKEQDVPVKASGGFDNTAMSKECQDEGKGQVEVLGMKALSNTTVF
Description: NaP2b-mediated Pi transport (33P uptake) in transfected HEK293 cells, rat NaP2b. It is filed as cell-based. The following applies: Structure (II) examples, Table 2; HEK293, 0.1 mM phosphate; read-out: pIC50 range for rat Nap2b (converted). In outline:
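HEK293 cells transiently transfected with NaP2b cDNA, endogenous PiT transport suppressed; ^33P-phosphate uptake measured in sodium vs choline buffer (100 uM KH2PO4, pH 7.4) for 3–30 min at room temperature. Twelve concentrations, 0.1 nM–30 uM, in duplicate; uptake by scintillation counting, pIC50 calculated.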

Data set [1] in a line: Determination of compound Cmax and AUC after oral gavage (plasma LC-MS/MS). It is filed as in vivo, Sprague-Dawley rats. The following applies: Sprague-Dawley, rat, plasma, po, Structure (II) examples, Table 6, actual oral dose 7.6-11 mg/kg. In short, it runs like this: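 Sprague-Dawley rats dosed by oral gavage at nominal 2.5 or 10 mg/kg; blood drawn at 0.5, 1, 2 and 4 h into K2EDTA. Plasma protein-precipitated with acetonitrile plus internal standard and analysed by LC-MS/MS against a plasma standard curve to derive Cmax and AUC.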

The next data set concerns the target T2, human NaP2b (SLC34A2) (Homo sapiens, UniProt O95436).
T2 construct: host or cells: HEK293
T2 sequence (O95436 1-690): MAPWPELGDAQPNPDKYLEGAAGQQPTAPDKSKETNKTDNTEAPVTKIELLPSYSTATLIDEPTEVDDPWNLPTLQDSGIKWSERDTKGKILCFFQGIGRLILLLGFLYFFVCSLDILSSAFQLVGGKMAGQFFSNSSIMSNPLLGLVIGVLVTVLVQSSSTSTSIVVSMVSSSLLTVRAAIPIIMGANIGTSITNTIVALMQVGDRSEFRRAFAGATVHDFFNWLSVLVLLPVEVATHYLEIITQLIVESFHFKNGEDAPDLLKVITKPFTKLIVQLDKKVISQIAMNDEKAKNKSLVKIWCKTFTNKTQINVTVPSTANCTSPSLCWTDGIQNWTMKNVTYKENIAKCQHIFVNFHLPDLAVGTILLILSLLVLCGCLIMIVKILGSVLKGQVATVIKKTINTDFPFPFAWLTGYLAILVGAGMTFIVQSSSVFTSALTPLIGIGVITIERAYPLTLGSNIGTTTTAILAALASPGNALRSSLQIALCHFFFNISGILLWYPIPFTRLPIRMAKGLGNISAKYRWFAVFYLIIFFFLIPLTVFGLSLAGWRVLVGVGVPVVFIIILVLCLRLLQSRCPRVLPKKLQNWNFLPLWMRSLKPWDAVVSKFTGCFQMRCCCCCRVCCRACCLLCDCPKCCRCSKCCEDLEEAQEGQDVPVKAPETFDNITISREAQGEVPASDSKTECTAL
Description: NaP2b-mediated Pi transport (33P uptake) in transfected HEK293 cells, human NaP2b. Type of data set: cell-based. The following applies: Structure (II) examples, Table 2; HEK293, 0.1 mM phosphate; read-out: pIC50 range for human Nap2b (converted). As for the experimental part:
HEK293 cells were obtained from the American Type Culture collection and propagated per their instructions. Expression clones for rat and human NaP2b (SLC34A2) were obtained from Open Biosystems (Catalog numbers MRN1768-9510282, and MHS1010-99823026, respectively). The sequence of the human protein was mutated to insert a threonine after residue 37, and to introduce a N39D mutation.
The rate of phosphate (Pi) uptake into HEK293 cells was measured using a modification of the method described by Mohrmann et al. (Mohrmann, I., Mohrmann, M., Biber, J., and Murer, H. (1986) Am. J. Phys. 250(3 Pt 1):G323-30.) Transfected HEK293 cells were treated with a pharmacological agent to minimize endogenous PiT-mediated phosphate transport activity, such that the only remaining sodium-dependent phosphate transport activity is that which was bestowed by introduction of the NaP2b genes.
Cells were seeded into 96-well plates at 25,000 cells/well and cultured overnight. […]
After incubation for 3-30 minutes at room temperature, assay mixtures were removed, and the cells were washed twice with ice cold stop solution (137 mM sodium chloride, 14 mM Tris, pH 7.4). Cells were lysed by addition of 20 μL 0.1% Tween 80 followed by 100 μL scintillation fluid, and counted using a TopCount (Perkin Elmer).
pIC50 (the negative log of the IC50) values of the test compounds were calculated using GraphPad Prism.

SMILES strings stand for the structures.

The Cmax is the highest concentration seen after dosing. Consider `O=C(O)CCOCCOCCOCCNC(=O)c1cccc(C(=O)Nc2ccc(Cl)cc2C(=O)Nc2ccn(-c3cccc(C(F)(F)F)c3)n2)c1` [Example 25], for which the IC50 at rat NaP2b (SLC34A2) and at human NaP2b (SLC34A2) was less than 1 µM in each case. The Cmax in data set [1] was found to be 3 ng/mL.
